The results in this text go back to PMC8286840, “Identifying SARS-CoV-2 antiviral compounds by screening for small molecule inhibitors of Nsp3 papain-like protease” (Biochemical Journal, 2021).

Assay [1] addresses T1, SARS-CoV-2 PLpro (nsp3 1564–1878) (Severe acute respiratory syndrome coronavirus 2, UniProt P0DTD1). The experiment in a line: biochemical. Details: FRET-quenched peptide (Pro3) cleavage by PLpro, 10 min pre-incubation, slope over 20 min, normalised to no-compound control. Particulars: high concentration screen, read-out: % of control remaining.
Assay [2] addresses T1, SARS-CoV-2 PLpro (nsp3 1564–1878). The experiment in a line: biochemical. Details: FRET-quenched peptide (Pro3) cleavage by PLpro, 10 min pre-incubation, slope over 20 min, normalised to no-compound control. Particulars: low concentration screen, read-out: % of control remaining.

Where a name gives a salt, the structure may show the parent alone. Read-outs that look alike come from different tables or passages of the source.

`O=S(=O)(c1cccc2cnccc12)N1CCCNCC1` [HA 1077, Dihydrochloride Fasudil]: the remaining activity at 3.75 µM in assay [1] (Well no.=2646) stood at 100%. Moreover, the remaining activity at 1.25 µM in assay [2] (Well no.=2646) was 94.1%.

For the compound `O=c1[nH]ccc2c(S(=O)(=O)N3CCCNCC3)cccc12` [HA 1100 hydrochloride - 1-[(1,2-Dihydro-1-oxo-5-isoquinolinyl)sulfonyl]hexahydro-1H-1,4-diazepine hydrochloride], the remaining activity at 3.75 µM in assay [1] (Well no.=2526) came out at 97.2%. Further, in assay [2] (Well no.=2526), the remaining activity at 1.25 µM was 95.2%.

Consider `O=S(=O)(c1cccc2cnccc12)N1CCNCC1` [HA-100], for which the remaining activity at 3.75 µM in assay [1] (Well no.=478) is 101%. For the same compound, in assay [2] (Well no.=478), the remaining activity at 1.25 µM turned out to be 102%.

For the compound `NC(N)=NCCNS(=O)(=O)c1cccc2cnccc12` [HA-1004 hydrochloride], the remaining activity at 3.75 µM in assay [1] (Well no.=522) came to 99.3%. The remaining activity at 1.25 µM in assay [2] (Well no.=522) was determined as 101%.

With `CC(C)c1ccc(NC(=O)Cn2cnc3c2c(=O)n(C)c(=O)n3C)cc1` [HC-030031], the remaining activity at 3.75 µM in assay [1] (Well no.=5225) worked out at 89.7%. Moreover, the remaining activity at 1.25 µM in assay [2] (Well no.=5225) was 94%.

Take `Cc1c(C(=O)Nc2cccc(C(F)(F)F)c2)cc(-c2ccccc2)n1CCCN1CCOCC1` [HC-067047]: in assay [1] (Well no.=5409), the remaining activity at 3.75 µM turned out to be 103%. In assay [2] (Well no.=5409), the remaining activity at 1.25 µM was 102%.

Turning to `O=C(CCc1ccc(CN[C@H](C(=O)OC2CCCC2)C2CCCCC2)cn1)NO` [HDAC-IN-3], the remaining activity at 3.75 µM in assay [1] (Well no.=8172) is 104%. Also, the remaining activity at 1.25 µM in assay [2] (Well no.=8172) is 105%.

For the compound `C[C@@H]1CN(C(=O)Nc2ccc(-c3nc(N4CCOCC4)c4cnn(CCCCCCC(=O)NO)c4n3)cc2)CCO1` [HDACs/mTOR Inhibitor 1], the remaining activity at 3.75 µM in assay [1] (Well no.=6964) came to 93.8%. The remaining activity at 1.25 µM in assay [2] (Well no.=6964) is 96.4%.

For the compound `CCCCC#Cc1nc(N)c2ncn([C@@H]3O[C@H](C(=O)NCC)[C@@H](O)[C@H]3O)c2n1` [HE-NECA], the remaining activity at 3.75 µM in assay [1] (Well no.=756) stood at 98.5%. The remaining activity at 1.25 µM in assay [2] (Well no.=756) is 97%.

As for `CCOc1ccc(C(Nc2ccccn2)c2ccc3ccc(C)nc3c2O)cc1C` (stereo not drawn) [HLM006474], the remaining activity at 3.75 µM in assay [1] (Well no.=5926) turned out to be 100%. For the same compound, the remaining activity at 1.25 µM in assay [2] (Well no.=5926) amounted to 104%.

Regarding `CC1(C)C=C(CN2C/C(=C\c3ccc(F)cc3)C(=O)/C(=C/c3ccc(F)cc3)C2)C(C)(C)N1O` [HO-3867], the remaining activity at 3.75 µM in assay [1] (Well no.=8518) was found to be 102%. Further, in assay [2] (Well no.=8518), the remaining activity at 1.25 µM was determined as 101%.

For `CC(C)(C)NCC(O)c1ccc(O)cc1Cl` (stereo not drawn) [HOKU-81], the remaining activity at 3.75 µM in assay [1] (Well no.=8051) turned out to be 96.3%. Moreover, in assay [2] (Well no.=8051), the remaining activity at 1.25 µM stood at 93%.

For the compound `Cc1ccc(Oc2ccnc3cc(-c4cnn(C5CCNCC5)c4)ccc23)cc1` [HS-1371], the remaining activity at 3.75 µM in assay [1] (Well no.=6820) turned out to be 85.5%. In assay [2] (Well no.=6820), the remaining activity at 1.25 µM stood at 91.1%.

With `COc1cccc(-c2cc(F)ccc2C2Cc3nc(N)nc(C)c3C(=O)N2)n1` (stereo not drawn) [HSP990 (NVP-HSP990)], the remaining activity at 3.75 µM in assay [1] (Well no.=8934) came out at 100%. In assay [2] (Well no.=8934), the remaining activity at 1.25 µM is 93.5%.

With `CCC(=O)O[C@]1(C(=O)CCl)[C@@H](C)C[C@H]2[C@@H]3C[C@H](F)C4=CC(=O)C=C[C@]4(C)[C@@]3(F)[C@@H](O)C[C@@]21C` [Halobetasol Propionate], the remaining activity at 3.75 µM in assay [1] (Well no.=8250) is 91.1%. Further, the remaining activity at 1.25 µM in assay [2] (Well no.=8250) turned out to be 94.9%.

For `COc1ccc2c3c([nH]c2c1)C(C)=NCC3` [Harmaline], in assay [1] (Well no.=3286), the remaining activity at 3.75 µM was 99.1%. In addition, the remaining activity at 1.25 µM in assay [2] (Well no.=3286) was 99.5%.

For the compound `Cc1nccc2c1[nH]c1ccccc12` [Harmane], the remaining activity at 3.75 µM amounted to 92% in assay [1] (Well no.=612) and 102% in assay [1] (Well no.=3593). In addition, the results for the remaining activity at 1.25 µM in assay [2] (Well no.=612) and in assay [2] (Well no.=3593) were 98.8% and 101%, respectively.

On to `COc1ccc2c(c1)[nH]c1c(C)nccc12` [Harmine], for which the remaining activity at 3.75 µM in assay [1] (Well no.=2092) was 88.2%; in assay [1] (Well no.=3681), 97.5%; in assay [1] (Well no.=8343) it was 83.5%. In addition, the values for the remaining activity at 1.25 µM in assay [2] (Well no.=2092), in assay [2] (Well no.=3681) and in assay [2] (Well no.=8343) were 90.6%, 97.5% and 96.2%, respectively.

Take `COC(=O)C[C@](O)(CCC(C)(C)O)C(=O)O[C@@H]1C(OC)=C[C@]23CCCN2CCc2cc4c(cc2[C@H]13)OCO4` [Harringtonine]: in assay [1] (Well no.=3615), the remaining activity at 3.75 µM is 103%. The remaining activity at 1.25 µM in assay [2] (Well no.=3615) stood at 105%.

With `CO[C@H](C)[C@](O)(C(=O)OCC1=CCN2CC[C@H](O)[C@@H]12)C(C)C` [Heliotrine], the remaining activity at 3.75 µM in assay [1] (Well no.=3149) worked out at 104%. For the same compound, the remaining activity at 1.25 µM in assay [2] (Well no.=3149) was determined as 101%.

Regarding `C[N+]1(C)CCO[C@@](O)(c2ccc(-c3ccc([C@@]4(O)C[N+](C)(C)CCO4)cc3)cc2)C1` [Hemicholinium-3], in assay [1] (Well no.=474), the remaining activity at 3.75 µM came to 95.2%. The remaining activity at 1.25 µM in assay [2] (Well no.=474) is 97.1%.

As for `CCCCCCCCCCCCCCCCCCCCC(=O)O` [Heneicosanoic acid], in assay [1] (Well no.=4450), the remaining activity at 3.75 µM is 101%. Further, the remaining activity at 1.25 µM in assay [2] (Well no.=4450) amounted to 101%.

Regarding `CCCCC/C=C\C[C@@H]1O[C@H]1/C=C/C(O)C/C=C\CCCC(=O)O` (stereo partly drawn) [Hepoxilin A3], the remaining activity at 3.75 µM in assay [1] (Well no.=4339) is 106%. Further, the remaining activity at 1.25 µM in assay [2] (Well no.=4339) worked out at 107%.

`CCCCC/C=C\C[C@@H]1O[C@H]1C(O)/C=C\C/C=C\CCCC(=O)O` (stereo partly drawn) [Hepoxilin B3]: in assay [1] (Well no.=4341), the remaining activity at 3.75 µM came to 96.6%. In assay [2] (Well no.=4341), the remaining activity at 1.25 µM was found to be 97.9%.

As for `CCCCCCCCCCCCCCCCC(=O)O` [Heptadecanoic acid], in assay [1] (Well no.=4308), the remaining activity at 3.75 µM was 101%. In assay [2] (Well no.=4308), the remaining activity at 1.25 µM was 106%.

As to `CO[C@H]1[C@@H](OC)C[C@H](C)[C@@H](OC)C2=CC(=O)C=C(NC(=O)/C(C)=C/C=C\[C@H](OC)[C@@H](OC(N)=O)/C(C)=C/[C@@H]1C)C2=O` [Herbimycin A, Streptomyces sp.], in assay [1] (Well no.=2419), the remaining activity at 3.75 µM was 111%. Besides, the remaining activity at 1.25 µM in assay [2] (Well no.=2419) was found to be 104%.

For `COc1ccc2cc1Oc1ccc(cc1)C[C@H]1c3cc(c(OC)cc3CCN1C)Oc1c(OC)c(OC)c(OC)c3c1[C@H](C2)N(C)CC3` [Hernandezine], in assay [1] (Well no.=3151), the remaining activity at 3.75 µM amounted to 101%. For the same compound, in assay [2] (Well no.=3151), the remaining activity at 1.25 µM came out at 100%.

For `CCS(=O)(=O)Nc1ccc2c(c1)/C(=C(/Nc1ccc(CN3CCCCC3)cc1)c1ccccc1)C(=O)N2` [Hesperadin], in assay [1] (Well no.=5262), the remaining activity at 3.75 µM stood at 88.4%. Moreover, the remaining activity at 1.25 µM in assay [2] (Well no.=5262) was found to be 99.1%.

As to `COc1ccc([C@@H]2CC(=O)c3c(O)cc(O)cc3O2)cc1O` [Hesperetin], the remaining activity at 3.75 µM in assay [1] (Well no.=6630) stood at 104%. Further, in assay [2] (Well no.=6630), the remaining activity at 1.25 µM amounted to 103%.

In the case of `CCN1C[C@]2(C)CC[C@H](OC)[C@]34C1[C@H]([C@@H](O)[C@H]23)[C@@]1(O)CC[C@H]2C[C@@H]4[C@@H]1C(=O)O2` [Heteratisine], in assay [1] (Well no.=3153), the remaining activity at 3.75 µM turned out to be 105%. Moreover, the remaining activity at 1.25 µM in assay [2] (Well no.=3153) is 102%.
